We go through 89 molecules from a melting point compilation (Tetko et al.; mined from patent text by program, amines drawn as free bases though some values may be those of a salt).

What is called melting point is the temperature, or range, at which the solid turns liquid.

Turning to `CCN/C(=C1/Sc2ccccc2C1=O)c1ccccc1CC`, the melting point fell in the range of 76 to 77 °C.
Then `Cc1nc(NC(=O)c2ccccc2)sc1C(=O)NCc1cccc(Cl)c1`, with 198 to 199 °C; and `O=[N+]([O-])c1ccc(-c2nc(-c3ccco3)no2)c(Cl)c1`, with 124 to 125 °C; and `O=C(OCc1ccccc1)N1CCC(NCC(O)Cn2ccnc2[N+](=O)[O-])C(O)C1` (centres undefined), with 140 to 142 °C.
Then `Cc1cc(O)ccc1-c1ccc(C=NO)c(Cl)c1`, with 169 to 171 °C; and `O=C1NCCN1Cc1cccc(F)c1`, with 103 to 105 °C.
For `CC(C)(CO)Nc1cc(Cl)ccc1[N+](=O)[O-]`, the melting point was 102 to 104 °C.
With `Cc1nc2c3c(c(C(=O)N4CCOCC4)cc2n1C)CCC1(Cc2ccccc2C1)N3`, the melting point lay in the range of 284 to 285 °C.
Then `Ic1nnnn1Cc1ccccc1`, with 122 °C; and `CC(=O)c1nc2ccc(OC(C)C)cc2cc1OCc1ccccc1`, with 102 to 104 °C; and `NCCCN1c2ccccc2N=C(c2ccccc2F)c2ccccc21`, with 144 to 145 °C.
In the case of `CCN(CC)c1ccc(C(=O)C#Cc2ccncn2)cc1`, the melting point fell in the range of 180 to 182 °C.
`CN1CCN(c2cccc3ccc(NC(=O)C(F)(F)F)cc23)CC1` showed a melting point of 159 to 160 °C.
Regarding `Cc1ccccc1-c1ccn(C(C)(C)C(=O)N(C)C)n1`, the melting point lay within 78.5 to 81 °C.
Turning to `O=c1[nH]c(Cc2ccc(OCCc3coc(-c4ccccc4)n3)cc2)no1`, the melting point was in the range of 154 to 158 °C.
Molecule `NS(=O)(=O)c1cc(C(=O)O)cc(NCc2ccco2)c1-c1ccccc1` yielded a melting point of 167 to 169 °C.
Molecule `CS(=O)(=O)c1ccccc1S(=O)(=O)Nc1cccc2cc(C(=O)NCCSC(c3ccccc3)(c3ccccc3)c3ccccc3)[nH]c12` yielded a melting point of 91 to 93 °C.
As to `CCOc1nc2nc(SC)nn2c2c1cnc1c2cnn1CC`, the melting point lay in the range of 209 to 211 °C.
Next, `Cc1c(C)c2c(c(C)c1NC(=O)CC(C)(C)C)C(c1ccc(F)cc1)C(C)(C)O2` (centres undefined): 194 to 195 °C; `COC(=O)c1ccc(I)c2c1Nc1ccccc1C2`: 119 to 121 °C; `CCN(CC)C(=O)c1ccccc1C1CC1c1ccccc1` (centres undefined): 52 to 53 °C.
The molecule `CC(=O)c1ccc(-c2ccc3c(ccn3Cc3ccccc3)c2)cc1` registered a melting point of 134 to 135 °C.
The molecule `O=C(O)COc1ccc(-c2c(Cl)c(CN3C(=O)CCC3=O)nc3sc4c(c23)CCS(=O)(=O)C4)cc1` registered a melting point of 260 to 261 °C.
As to `CC(C)[C@@H]1C[C@@H]([C@H](Br)CC2CCCCC2)OC1=O`, the melting point lay within 95 to 95.5 °C.
Next, `O=C(O)c1cc2ccccc2n1S(=O)(=O)c1cccc(Cl)c1`: 216 to 217 °C.
As to `Cc1cc2c(cc1C1=NNC(=O)SC1C)C(C)(C)C(=O)N2` (centres undefined), the melting point was determined as 240 °C.
With `COc1ccc2c(c1)C(=O)c1cc(-c3nnn[nH]3)ccc1C2=O`, the melting point was 265 to 266 °C.
`Cn1cnnc1Sc1nc(-c2ccc(Cl)cc2)c(CCC(=O)O)o1`: the melting point is 186 to 188 °C.
`N#Cc1cc(-c2ccc(F)cc2)ccn1` yielded a melting point of 194 to 195 °C.
Take `CN1C(=O)CN=C(c2ccccc2F)c2cc(C#N)ccc21`: the melting point amounted to 177 °C.
For the molecule `CCCn1nc(C(C)C)c(C(=O)OCOC(C)=O)c1Cc1ccc(-c2ccccc2-c2nnn[nH]2)cc1`, the melting point fell in the range of 58 to 63 °C.
As for `O=C(O)c1nccnc1C(=O)Nc1ccc(Cl)cn1`, the melting point was 222 °C.
Molecule `CCOC(=O)CCc1ccc2c(c1)CC(CNC(=O)OC(C)(C)C)CC2` (centres undefined) yielded a melting point of 69 to 71 °C.
`COc1c(Cl)nc(Cl)nc1-c1ccco1` showed a melting point of 105 to 107 °C.
Molecule `COC(=O)[C@@H](Cc1ccccc1)NC(=O)OCc1cc2cc(-c3ccccc3)ccc2[nH]1` came in with a melting point of 142 to 143 °C.
For the molecule `Cc1csc2[nH]c(=O)n(Cc3ccc(Br)cc3F)c(=O)c12`, the melting point fell in the range of 296 to 298 °C.
For the molecule `CCCCc1nc2c(N)nc3cccnc3c2n1CC(C)C`, the melting point fell in the range of 115 to 116 °C.
`CCOC(=O)C(=NO)c1ccc(OC)cc1` displayed a melting point of 81 to 82 °C.
As to `Cc1ccccc1OCCCc1sc(-n2ccnc2C)nc1-c1ccc(Cl)cc1`, the melting point is 112 to 113 °C.
`O=[N+]([O-])c1cc(Oc2ccccc2)ccc1OCc1ccccc1` registered a melting point of 84 to 87 °C.
Consider `O=C1NCCN1Cc1c(Cl)cccc1Cl`, for which the melting point is 156 to 158 °C.
Regarding `CC(=O)NC[C@H]1CN(c2ccc(N3CCN(C(=S)CN)CC3)c(F)c2)C(=O)O1`, the melting point is 202 to 204 °C.
The molecule `C[C@@H]1CN(C(=O)c2cc3c(C(=O)OC(C)(C)C)ncn3c3ccccc23)C[C@H](C)N1` returned a melting point of 233 to 234 °C.
`Cc1cc(-c2noc(C(F)(F)F)n2)cc(C)c1OCCCc1ccc(CCl)nc1` came in with a melting point of 79 to 81 °C.
Then `CC(C)(C)[Si](C)(C)OC1CCN(S(=O)(=O)c2ccc(N3CCCCC3)cc2)C1=S` (centres undefined), with 152 to 153 °C.
Take `Cn1c2c(c3ccccc31)Cc1c(CO)c(CO)c(-c3ccc(Cl)cc3)n1C2`: the melting point lay within 238 to 239 °C.
`CCOP(=O)(Cc1ccc(NC(=S)Nc2cc(-c3cc4cc(F)c(F)cc4[nH]3)ccc2OC)cc1)OCC` displayed a melting point of 180 to 182 °C.
On to `CC(C)CNC(=O)COc1ccc(C2=NNC(=O)NC2C)cc1Cl` (centres undefined), for which the melting point lay within 205 to 206 °C.
Take `CC1CN(C(=O)COc2nc(-c3ccc(Cl)cc3)nc3c2CCCC3)CC(C)O1` (centres undefined): the melting point was in the range of 265 to 268 °C.
Consider `CN(C)C(=S)Nc1ccccc1N1CCOCC1`, for which the melting point was in the range of 150 to 152 °C.
For the molecule `O=C(NC1CCOC(O)C1)c1ccc2nonc2c1` (centres undefined), the melting point is 91 to 92 °C.
`Cn1cc(S(C)=O)c(=O)c2sccc21` (centres undefined) had a melting point of 199 °C.
In turn, `O=C1CCCc2ccc(O)cc21` came in with a melting point of 170 to 173 °C.
Regarding `COC(=O)c1ccc(S(C)(=O)=O)c(-c2ccon2)c1C`, the melting point lay in the range of 87 to 89 °C.
Next, `CC(=O)N(C)CCc1ccc(C=CC(=O)O)cc1`: 157 to 158 °C.
As to `COc1ccc(C=Cc2ccc3cccc(O)c3n2)cc1`, the melting point was 108 to 110 °C.
For `O=C(NNC(=O)c1occ(-c2ccccc2)c1-c1ccccc1)c1ccsc1`, the melting point was 195 to 197 °C.
Next, `O=Cc1c[nH]c2c1ccc1c3ccccc3[nH]c12`: more than 290 °C; `CC1=C(C(=O)N(C)Cc2ccc(Cl)cc2Cl)SC2=NCCN21`: 55 to 60 °C.
Molecule `COc1cc(OCC2CCCO2)ccc1/C=C/c1cc(/C=C/c2ccc3cc[nH]c3c2)n[nH]1` (centres undefined) yielded a melting point of 218 to 220 °C.
Turning to `O=C1C2CCC(C(=O)N2Cc2ccccc2)N1Cc1ccccc1`, the melting point was 168 to 170 °C.
The molecule `CC(NS(=O)(=O)c1ccc(Cl)cc1)P(=O)(OCCCl)OCCCl` (centres undefined) displayed a melting point of 94.5 to 98 °C.
As to `Cc1cc(NC(=O)c2cccnc2Cl)[nH]n1`, the melting point was more than 300 °C.
Take `CCS(=O)(=O)Nc1cc(-n2nc3n(c2=O)CCCS3)c(F)cc1C#N`: the melting point lay in the range of 193 to 195 °C.
Turning to `CCOC(=O)c1cc2cc(Br)ccc2s1`, the melting point is 94 to 95 °C.
For the molecule `O=C(O)c1cccn2c(-c3ccc(F)cc3)cnc12`, the melting point is more than 400 °C.
As to `CCCn1c(=O)c2[nH]c(-c3cc(C)n(CC(=O)Nc4cccc5ccccc45)n3)nc2n(CCC)c1=O`, the melting point was more than 300 °C.
Molecule `COC(=O)c1ccc(CCC(C)NCC(O)c2cc3ccccc3o2)cc1` (centres undefined) displayed a melting point of 104 to 108 °C.
`CON1C=C2N=NC3=C(N2C1)N(c1ccccc1Cl)CC(C)=C3` returned a melting point of 198 to 200 °C.
Consider `Nc1cccc(-c2cccc3c2/C(=C/c2ccc[nH]2)C(=O)N3)c1`, for which the melting point lay within 92 to 94 °C.
In the case of `CC(=O)c1c(C)c(NC(=O)CC(C)(C)C)c(C)c2c1S(=O)CC2c1ccc(C(C)C)cc1` (centres undefined), the melting point is 214 to 216 °C.
Molecule `COc1cccc(CC(CO)NCCC(c2ccccc2)c2ccccc2)c1` (centres undefined) had a melting point of 89 to 91 °C.
`CCc1cc2c(c(CC)n1)CCC(=O)N2Cc1ccc(Oc2ccccc2CC(=O)O)cc1` displayed a melting point of 122 to 124 °C.
Turning to `CCOC(=O)c1cc(Cl)c(-n2ncc(C)n2)c(Cl)c1`, the melting point fell in the range of 136 to 138 °C.
`N#Cc1ccc(N2CCc3[nH]c4c(cnc5cc(Cl)ccc54)c3C2)cc1` yielded a melting point of more than 275 °C.
`COc1ccc(-c2nnc3c4ccccc4c(O)nn23)cc1` came in with a melting point of 307 to 309 °C.
Then `CCc1ccc(CCc2ccc(-c3ccc(OC(F)(F)F)cc3)cc2)cc1`, with 97 °C; and `Cn1nnnc1C(CBr)=C(c1ccc(F)cc1)c1ccc(F)cc1`, with 159 to 160 °C; and `CC(C)(C)c1ccc(NS(=O)(=O)c2ccc(N3CCNC3=O)cc2)cc1`, with 241 to 243 °C.
Next, `CCCCCCCCCCCCCCCCOCC(CO)OCOC(c1ccccc1)(c1ccccc1)c1ccccc1` (centres undefined): 38 °C; `O=[N+]([O-])c1ncn(COC(CO)CO)n1`: 132 °C; `O=C(NC(Cc1ccc(OCc2ccccc2F)cc1)C(=O)O)c1cn2ccc(-c3ccc(Cl)cc3)cc2n1` (centres undefined): 250 to 252 °C.
`CCN1C(=O)C(C)(C)C(=O)N(C)c2cc(CN(CCn3cc(C)c4oc(C)cc4c3=O)C(C)c3cccnc3C)ccc21` (centres undefined): the melting point is 169 to 170 °C.
On to `CCOCc1cc2cc(Br)ccc2oc1=Nc1cccc(OC)c1`, for which the melting point lay within 93 to 94 °C.
In turn, `Cc1ccc2c(c1)CC(=O)N2c1c(F)cccc1Cl` showed a melting point of 137 to 140 °C.
Next, `COc1ccc2c3c([nH]c2c1)C(=S)C(CC1CCN(C(=O)OC(C)(C)C)CC1)C3` (centres undefined): 188 to 189 °C.
Then `COc1cccc(N2CCN(c3ccc(S(=O)(=O)N[C@@H](Cc4ccccc4)C(=O)O)cc3)CC2)c1`, with 137 to 139 °C.
Turning to `O=C(O)CCC(Cc1ccccc1)(C(=O)C=Cc1ccc(Cl)cc1)c1ccccc1` (centres undefined), the melting point lay in the range of 160 to 170 °C.
Next, `CC(=O)OCc1ccc(Cl)cc1C(O)c1ccccc1` (centres undefined): 86 to 88 °C.
